Numbers after ± are expanded uncertainties.
Settings: Liquid; for mass density: Vibrating tube method

CCCC[N+](C)(C)C.O=S(=O)([N-]S(=O)(=O)C(F)(F)F)C(F)(F)F [butyltrimethylammonium bis(trifluoromethylsulfonyl)imide]
Settings | viscosity [mPa·s]
278.15 K, 101.33 kPa, Concentric cylinders viscometry | 360.1 ± 9.7
283.15 K, 101.33 kPa, Concentric cylinders viscometry | 253.8 ± 5.8
288.15 K, 101.33 kPa, Concentric cylinders viscometry | 184.7 ± 3.6
293.15 K, 101.33 kPa, Concentric cylinders viscometry | 138.3 ± 2.3
298.15 K, 101.33 kPa, Concentric cylinders viscometry | 105.4 ± 1.5
298.6 K, 101.33 kPa, Vibrating wire viscometry | 102.17 ± 1.9
301.53 K, 101.33 kPa, Vibrating wire viscometry | 87.01 ± 1.6
303.15 K, 101.33 kPa, Concentric cylinders viscometry | 82.19 ± 1
303.15 K, 10000 kPa, Falling or rolling sphere viscometry | 93.4 ± 3.8
303.15 K, 15000 kPa, Falling or rolling sphere viscometry | 99.9 ± 4.1
303.15 K, 25000 kPa, Falling or rolling sphere viscometry | 114 ± 5
303.15 K, 50000 kPa, Falling or rolling sphere viscometry | 158.2 ± 7.9
303.15 K, 75000 kPa, Falling or rolling sphere viscometry | 218.5 ± 13
303.15 K, 100000 kPa, Falling or rolling sphere viscometry | 300.8 ± 20
303.15 K, 125000 kPa, Falling or rolling sphere viscometry | 413.1 ± 31
303.15 K, 150000 kPa, Falling or rolling sphere viscometry | 566.6 ± 47
304.45 K, 101.33 kPa, Vibrating wire viscometry | 76.4 ± 1.3
307.33 K, 101.33 kPa, Vibrating wire viscometry | 66.1 ± 1.1
308.15 K, 101.33 kPa, Concentric cylinders viscometry | 65.33 ± 0.74
310.28 K, 101.33 kPa, Vibrating wire viscometry | 58.41 ± 0.92
313.15 K, 101.33 kPa, Concentric cylinders viscometry | 53.01 ± 0.57
313.15 K, 10000 kPa, Falling or rolling sphere viscometry | 59.7 ± 2.1
313.15 K, 15000 kPa, Falling or rolling sphere viscometry | 63.7 ± 2.3
313.15 K, 25000 kPa, Falling or rolling sphere viscometry | 72.4 ± 2.7
313.15 K, 50000 kPa, Falling or rolling sphere viscometry | 98.5 ± 4.1
313.15 K, 75000 kPa, Falling or rolling sphere viscometry | 132.2 ± 6.2
313.15 K, 100000 kPa, Falling or rolling sphere viscometry | 175.9 ± 9.3
313.15 K, 125000 kPa, Falling or rolling sphere viscometry | 232.5 ± 14
313.15 K, 150000 kPa, Falling or rolling sphere viscometry | 306 ± 20
313.34 K, 101.33 kPa, Vibrating wire viscometry | 50.51 ± 0.78
318.15 K, 101.33 kPa, Concentric cylinders viscometry | 43.22 ± 0.48
323.15 K, 101.33 kPa, Concentric cylinders viscometry | 35.9 ± 0.4
323.15 K, 10000 kPa, Falling or rolling sphere viscometry | 40.1 ± 1.5
323.15 K, 15000 kPa, Falling or rolling sphere viscometry | 42.6 ± 1.5
323.15 K, 25000 kPa, Falling or rolling sphere viscometry | 47.9 ± 1.7
323.15 K, 50000 kPa, Falling or rolling sphere viscometry | 63.5 ± 2.3
323.15 K, 75000 kPa, Falling or rolling sphere viscometry | 83.6 ± 3.3
323.15 K, 100000 kPa, Falling or rolling sphere viscometry | 109.1 ± 4.7
323.15 K, 125000 kPa, Falling or rolling sphere viscometry | 142 ± 6.8
323.15 K, 150000 kPa, Falling or rolling sphere viscometry | 183.4 ± 9.8
323.33 K, 101.33 kPa, Vibrating wire viscometry | 35.59 ± 0.57
328.15 K, 101.33 kPa, Concentric cylinders viscometry | 30.18 ± 0.34
328.27 K, 101.33 kPa, Vibrating wire viscometry | 29.72 ± 0.47
333.15 K, 101.33 kPa, Concentric cylinders viscometry | 25.64 ± 0.29
333.15 K, 10000 kPa, Falling or rolling sphere viscometry | 28.2 ± 1
333.15 K, 15000 kPa, Falling or rolling sphere viscometry | 29.8 ± 1.1
333.15 K, 25000 kPa, Falling or rolling sphere viscometry | 33.3 ± 1.2
333.15 K, 50000 kPa, Falling or rolling sphere viscometry | 43.4 ± 1.6
333.15 K, 75000 kPa, Falling or rolling sphere viscometry | 56.1 ± 2
333.15 K, 100000 kPa, Falling or rolling sphere viscometry | 71.9 ± 2.7
333.15 K, 125000 kPa, Falling or rolling sphere viscometry | 91.8 ± 3.7
333.15 K, 150000 kPa, Falling or rolling sphere viscometry | 116.8 ± 5.2
338.15 K, 101.33 kPa, Concentric cylinders viscometry | 22.02 ± 0.25
343.15 K, 101.33 kPa, Concentric cylinders viscometry | 19.08 ± 0.21
343.15 K, 10000 kPa, Falling or rolling sphere viscometry | 21 ± 0.8
343.15 K, 15000 kPa, Falling or rolling sphere viscometry | 22 ± 0.8
343.15 K, 25000 kPa, Falling or rolling sphere viscometry | 24.3 ± 0.9
343.15 K, 50000 kPa, Falling or rolling sphere viscometry | 31 ± 1.1
343.15 K, 75000 kPa, Falling or rolling sphere viscometry | 39.5 ± 1.4
343.15 K, 100000 kPa, Falling or rolling sphere viscometry | 50.3 ± 1.8
343.15 K, 125000 kPa, Falling or rolling sphere viscometry | 63.8 ± 2.3
343.15 K, 150000 kPa, Falling or rolling sphere viscometry | 81 ± 3.1
348.15 K, 101.33 kPa, Concentric cylinders viscometry | 16.65 ± 0.19
353.15 K, 101.33 kPa, Concentric cylinders viscometry | 14.74 ± 0.17
353.15 K, 10000 kPa, Falling or rolling sphere viscometry | 15.6 ± 0.6
353.15 K, 15000 kPa, Falling or rolling sphere viscometry | 16.5 ± 0.6
353.15 K, 25000 kPa, Falling or rolling sphere viscometry | 18.3 ± 0.7
353.15 K, 50000 kPa, Falling or rolling sphere viscometry | 23.4 ± 0.8
353.15 K, 75000 kPa, Falling or rolling sphere viscometry | 29.4 ± 1.1
353.15 K, 100000 kPa, Falling or rolling sphere viscometry | 36.6 ± 1.3
353.15 K, 125000 kPa, Falling or rolling sphere viscometry | 45.3 ± 1.6
353.15 K, 150000 kPa, Falling or rolling sphere viscometry | 55.7 ± 2
358.15 K, 101.33 kPa, Concentric cylinders viscometry | 12.99 ± 0.15
363.15 K, 101.33 kPa, Concentric cylinders viscometry | 11.58 ± 0.13
368.15 K, 101.33 kPa, Concentric cylinders viscometry | 10.38 ± 0.12
373.15 K, 101.33 kPa, Concentric cylinders viscometry | 9.36 ± 0.11

101.33 kPa
Settings | mass density [kg/m3]
278.15 K | 1411.5 ± 2.3
283.15 K | 1406.6 ± 2.3
288.15 K | 1401.9 ± 2.3
293.15 K | 1397.2 ± 2.3
298.15 K | 1392.8 ± 2.3
303.15 K | 1388.4 ± 2.3
308.15 K | 1384 ± 2.3
313.15 K | 1379.7 ± 2.3
318.15 K | 1375.4 ± 2.3
323.15 K | 1371.1 ± 2.3
328.15 K | 1366.8 ± 2.3
333.15 K | 1362.6 ± 2.3
338.15 K | 1358.4 ± 2.3
343.15 K | 1354.2 ± 2.3
348.15 K | 1350 ± 2.3
353.15 K | 1345.7 ± 2.3
358.15 K | 1341.4 ± 2.3
363.15 K | 1336.8 ± 2.3
368.15 K | 1332.5 ± 2.3
373.15 K | 1328.4 ± 2.3
